Biological target: T1, α-amylase from porcine pancreas (Sus scrofa, UniProt P00690)
T1 sequence (P00690 16-511): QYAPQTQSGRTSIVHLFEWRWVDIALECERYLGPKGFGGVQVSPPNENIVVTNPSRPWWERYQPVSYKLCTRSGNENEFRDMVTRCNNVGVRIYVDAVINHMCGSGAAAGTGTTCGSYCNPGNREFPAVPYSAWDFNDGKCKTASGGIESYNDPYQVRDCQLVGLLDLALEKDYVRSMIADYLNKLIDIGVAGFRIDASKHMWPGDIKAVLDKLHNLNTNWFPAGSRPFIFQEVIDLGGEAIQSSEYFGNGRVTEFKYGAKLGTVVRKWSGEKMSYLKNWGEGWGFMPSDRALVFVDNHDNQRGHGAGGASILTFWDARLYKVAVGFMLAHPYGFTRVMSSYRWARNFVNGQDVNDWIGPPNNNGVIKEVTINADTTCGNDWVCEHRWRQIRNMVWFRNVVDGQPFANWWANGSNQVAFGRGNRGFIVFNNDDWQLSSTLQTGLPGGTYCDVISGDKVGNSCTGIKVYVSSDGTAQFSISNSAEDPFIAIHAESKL
Description: The solution was heated to 37.0° C., and 0.5 I.U./ml α-amylase from porcine pancreas (from Roche; AS, Art. No. 102 814) was added. Samples were taken after 1 and 3 hours, the enzyme was inactivated by heat, and the molecular weight of the remaining high molecular weight fraction was determined by HPGPC.

hydroxyethyl starch [Voluven]
rate of degradation with α-amylase, compared with the hyperbranched amylopectin fraction from example 7: comparable
initial weight average molecular weight (pH 7.2): 140 200 daltons
weight average molecular weight after hydrolysis for 1 hour (pH 7.2): 54 700 daltons
weight average molecular weight after hydrolysis for 3 hours (pH 7.2): 33 700 daltons
